The assay addresses α-glucosidase. Put plainly: pNPG hydrolysis at […] nm; Lineweaver-Burk kinetics. Format: biochemical, Saccharomyces cerevisiae.

SMILES strings stand for the structures.

In the case of `Cc1cc2c(C(C)C)c(O)c(O)c(C=O)c2c(O)c1-c1c(C)cc2c(C(C)C)c(O)c(O)c(C=O)c2c1O` [GSP, gossypol], the half-inhibitory concentration (IC50) came to 670 ± 440 nM.
